In US5663205A, “Pharmaceutical composition for use in glaucoma treatment” (Senju Pharmaceutical Co. Ltd., priority 1992, dated 1997):

Test system: Normal Intraocular Pressure
Experiment: Test Example 2 (1): intraocular pressure reducing activity on normal intraocular pressure, pigmented rabbits
Type: in vivo, pigmented rabbits (Dutch belted rabbits)
Procedure: Intraocular Pressure Reducing Activity of Amosulalol Hydrochloride on Normal Intraocular Pressure in Pigmented Rabbits Forty (40) male pigmented rabbits (Dutch belted rabbits) weighing about 2 kg, after having been confirmed to be free from ocular abnormalities, were bred in a breeding room maintained at a temperature of 24± 4° C. and at a relative humidity of 55± 15%, while they were fed solid food (Labo RG-RO, manufactured by Nihon Nohsan Kogyo K.K.) at a daily rate of 100 g per rabbit and allowed free access to tap water as drinking water. As a test drug, amosulalol hydrochloride was processed into 0.05%, 0.5% and 1.0% aqueous solutions which were used in the test, and 0.5% timolol maleate ophthalmic solution [Timoptol (registered trademark): Ban-yu Pharmaceutical Co.] and physiological saline were used as a positive control drug and a control substance, respectively. (1) Measurement of intraocular pressure: Forty (40) rabbits were divided into five groups. each consisting of 8 heads, and 50 μl of test drug as well as the control drug and physiological saline were applied topically to one eye each of the individual rabbits, with the other being left untreated. Before instillation and 0.5, 1, 2, 3, 4, 6 and 8 hours after topical application respectively, intraocular pressure for both eyes of each rabbit was measured using PTG. Time-course changes of intraocular pressure measurements taken with the eyes treated by instillation of each of the test drugs, control drug and physiological saline, are illustrated in FIGS. 2 (for treated eyes) and 3 (for non-treated eyes), respectively, with time (hour) after instillation taken as abscissa and intraocular pressure (mmHg) as ordinate; each value in mean ± S.E. (the number in each case is 8). The signs "a", "b", "c", "d" and "e" designate physiological saline, 0.05% aqueous solution of amosulalol hydrochloride, 0.5% aqueous solution of amosulalol hydrochloride, 1.0% aqueous solution of amosulalol hydrochloride and 0.5% solution of timolol maleate, respectively.

SMILES: COc1ccccc1OCCNCC(O)c1ccc(C)c(S(N)(=O)=O)c1.Cl (stereo not shown) [amosulalol hydrochloride, 5-[1-hydroxy-2-[2-(2-methoxyphenoxy)ethylamino]ethyl]-2-methylbenzenesulfonamide hydrochloride]
- maximum drop in intraocular pressure (0.05% aqueous solution, treated eyes, 2 hours after instillation): 3.6 mmHg
- intraocular pressure reducing activity compared with 0.5% timolol maleate ophthalmic solution (0.05%, normal eyes): more potent intraocular pressure reducing activity
- maximum decrease in intraocular pressure (0.5% aqueous solution, treated eyes, 2 hours after topical application): 6.2 mmHg
- significant drop in intraocular pressure until (time after topical application) (0.5% aqueous solution, treated eyes, from 30 min): 4 h
- maximum decrease in intraocular pressure (1.0% aqueous solution, treated eyes, 3 hours after instillation): 9.0 mmHg
- decrease in intraocular pressure sustained until (time after instillation) (1.0% aqueous solution, treated eyes, sustained from 30 min after instillation): 6 h
- change in intraocular pressure of the other, non-treated eyes (non-treated eyes (FIG. 3)): no significant change
